Source: article PMC9090415, “Discovery of small molecule inhibitors of Plasmodium falciparum apicoplast DNA polymerase” (Journal of Enzyme Inhibition and Medicinal Chemistry, 2022)

Molecular target: P. falciparum apicoplast DNA polymerase (Pf-apPOL) (Plasmodium falciparum, UniProt Q8ILY1)
Experiment: Fluorescence-based high-throughput DNA polymerase assay (molecular beacon), primary screen and dose-response
Type: biochemical
Conditions: for DNA Pol: 90 min, 10 µM; for % inhibition apPOL 180' 2.5 / % inhibition apPOL 180' 5 / % inhibition apPOL 180' 10 / % inhibition apPOL 180' 20 / % inhibition apPOL 180' 40 / % inhibition apPOL 180' 80: read at 180'
Method in brief: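 Single-point screening used 10 µM compound with 20 nM polymerase, 20 nM hairpin substrate and 6 µM dNTPs for 90 min at 25 °C. Confirmatory titrations (2.5–80 µM) followed fluorescence at three times, and IC50 was derived from a fit including a cooperativity term n.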

Sequence of P. falciparum apicoplast DNA polymerase (Pf-apPOL) (Q8ILY1 entry or part of it): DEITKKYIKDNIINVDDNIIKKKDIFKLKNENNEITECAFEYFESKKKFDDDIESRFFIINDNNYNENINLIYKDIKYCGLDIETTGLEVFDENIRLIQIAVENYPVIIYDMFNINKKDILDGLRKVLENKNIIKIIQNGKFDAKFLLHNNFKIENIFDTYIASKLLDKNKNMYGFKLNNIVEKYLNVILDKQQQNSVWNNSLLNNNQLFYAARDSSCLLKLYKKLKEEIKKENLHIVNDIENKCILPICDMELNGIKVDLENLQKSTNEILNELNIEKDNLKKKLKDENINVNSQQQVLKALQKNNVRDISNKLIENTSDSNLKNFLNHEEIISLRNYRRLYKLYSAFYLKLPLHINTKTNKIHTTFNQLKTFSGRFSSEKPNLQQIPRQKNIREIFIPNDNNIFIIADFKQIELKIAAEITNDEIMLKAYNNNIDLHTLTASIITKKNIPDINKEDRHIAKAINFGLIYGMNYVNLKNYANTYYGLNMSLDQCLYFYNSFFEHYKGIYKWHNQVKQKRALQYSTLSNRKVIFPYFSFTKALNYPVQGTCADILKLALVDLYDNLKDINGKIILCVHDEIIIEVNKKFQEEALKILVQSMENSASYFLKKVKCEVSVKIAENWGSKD

## O=C(c1ccccc1)N1CCc2c(nc3cc(-c4ccccc4)[nH]n3c2=O)C1 [Molecule 30, O=C(N1CCc2c(C1)nc1n(c2=O)[nH]c(c1)c1ccccc1)c1ccccc1]
186 hits, DNA Pol (screen value), unit not given
  DNA Pol: 51
'DNA Pol' (screen value), unit not given
  DNA Pol: 51
DRC-1, read at 10', concentration 2.5
  % inhibition Apo pol 10' 2.5: 12.9086%
DRC-1, read at 10', concentration 5
  % inhibition Apo pol 10' 5: 15.849%
DRC-1, read at 10', concentration 10
  % inhibition Apo pol 10' 10: 54.0092%
DRC-1, read at 10', concentration 20
  % inhibition Apo pol 10' 20: 76.4447%
DRC-1, read at 10', concentration 40
  % inhibition Apo pol 10' 40: 86.2157%
DRC-1, read at 10', concentration 80
  % inhibition Apo pol 10' 80: 78.4105%
DRC-1, read at 90', concentration 2.5
  % inhibition Apol 90' 2.5: 4.897%
DRC-1, read at 90', concentration 5
  % inhibition Apol 90' 5: 3.579%
DRC-1, read at 90', concentration 10
  % inhibition Apol 90' 10: 37.2459%
DRC-1, read at 90', concentration 20
  % inhibition Apol 90' 20: 61.0288%
DRC-1, read at 90', concentration 40
  % inhibition Apol 90' 40: 75.6472%
DRC-1, read at 90', concentration 80
  % inhibition Apol 90' 80: 72.6232%
DRC-1, concentration 2.5
  % inhibition apPOL 180' 2.5: 0.553%
DRC-1, concentration 5
  % inhibition apPOL 180' 5: -2.049%
DRC-1, concentration 10
  % inhibition apPOL 180' 10: 22.4217%
DRC-1, concentration 20
  % inhibition apPOL 180' 20: 42.2339%
DRC-1, concentration 40
  % inhibition apPOL 180' 40: 59.6497%
DRC-1, concentration 80
  % inhibition apPOL 180' 80: 57.0627%
DRC-2, concentration 5
  % inhibition Apo pol 5': 18%
  % inhibition ApPOL 90': 18%
  % inhibition apPOL 180' 5: 10%
DRC-2, concentration 10
  % inhibition Apo pol 5': 37%
  % inhibition apPOL 180' 10: 29%
DRC-2, concentration 20
  % inhibition Apo pol 5': 50%
  % inhibition Apol 40': 61%
  % inhibition ApPOL 90': 60%
  % inhibition apPOL 180': 50%
  % inhibition apPOL 180' 20: 50%
DRC-2, concentration 80
  % inhibition Apo pol 5': 37%
  % inhibition ApPOL 90': 60%
  % inhibition apPOL 180' 80: 54%
DRC-2, concentration 40
  % inhibition ApPOL 90': 61%
  % inhibition apPOL 180' 40: 52%
DRC-2, read at 5', concentration 2.5
  % inhibition Apo pol 5' 2.5: 6.51%
DRC-2, read at 5', concentration 5
  % inhibition Apo pol 5' 5: 18%
DRC-2, read at 5', concentration 10
  % inhibition Apo pol 5' 10: 37%
DRC-2, read at 5', concentration 20
  % inhibition Apo pol 5' 20: 50%
DRC-2, read at 5', concentration 40
  % inhibition Apo pol 5' 40: 48%
DRC-2, read at 5', concentration 80
  % inhibition Apo pol 5' 80: 37%
DRC-2, read at 40', concentration 2.5
  % inhibition Apol 40' 2.5: 6.57%
DRC-2, read at 40', concentration 5
  % inhibition Apol 40' 5: 20%
DRC-2, read at 40', concentration 10
  % inhibition Apol 40' 10: 41%
DRC-2, read at 40', concentration 20
  % inhibition Apol 40' 20: 61%
DRC-2, read at 40', concentration 40
  % inhibition Apol 40' 40: 62%
DRC-2, read at 40', concentration 80
  % inhibition Apol 40' 80: 57%
DRC-2, read at 90', concentration 2.5
  % inhibition ApPOL 90' 2.5: 5%
DRC-2, read at 90', concentration 5
  % inhibition ApPOL 90' 5: 18%
DRC-2, read at 90', concentration 10
  % inhibition ApPOL 90' 10: 39%
DRC-2, read at 90', concentration 20
  % inhibition ApPOL 90' 20: 60%
DRC-2, read at 90', concentration 40
  % inhibition ApPOL 90' 40: 61%
DRC-2, read at 90', concentration 80
  % inhibition ApPOL 90' 80: 60%
DRC-2, concentration 2.5
  % inhibition apPOL 180' 2.5: 0.84%

## O=C(Cn1ccc2c(=O)[nH]ccc21)Nc1cc(F)ccc1F [Molecule 42, O=C(Cn1ccc2c1cc[nH]c2=O)Nc1cc(F)ccc1F]
'DNA Pol' of the 186 hits list (primary screen value)
  DNA Pol: 40
DNA Pol (primary screen value)
  DNA Pol: 40
DRC-1, concentration 2.5
  % inhibition Apo pol 10': -0.6304%
  % inhibition Apol 90': -3.25%
  % inhibition apPOL 180': -7.978%
DRC-1, concentration 5
  % inhibition Apo pol 10': 13.4677%
  % inhibition Apol 90': 4.148%
  % inhibition apPOL 180': -3.837%
DRC-1, concentration 10
  % inhibition Apo pol 10': 49.4515%
  % inhibition Apol 90': 35.5527%
  % inhibition apPOL 180': 18.2291%
DRC-1, concentration 20
  % inhibition Apo pol 10': 62.1247%
  % inhibition Apol 90': 52.2284%
  % inhibition apPOL 180': 34.5428%
DRC-1, concentration 40
  % inhibition Apo pol 10': 77.421%
  % inhibition Apol 90': 71.4461%
  % inhibition apPOL 180': 57.1907%
DRC-1, concentration 80
  % inhibition Apo pol 10': 76.1541%
  % inhibition Apol 90': 77.7263%
  % inhibition apPOL 180': 71.3539%
DRC-2, concentration 2.5
  % inhibition Apo pol 5': 3.65%
  % inhibition Apol 40': 2.11%
  % inhibition ApPOL 90': 0.827%
  % inhibition apPOL 180': -5%
DRC-2, concentration 5
  % inhibition Apo pol 5': 11%
  % inhibition Apol 40': 13%
  % inhibition ApPOL 90': 10%
  % inhibition apPOL 180': 4.53%
DRC-2, concentration 10
  % inhibition Apo pol 5': 31%
  % inhibition Apol 40': 36%
  % inhibition ApPOL 90': 34%
  % inhibition apPOL 180': 24%
DRC-2, concentration 20
  % inhibition Apo pol 5': 40%
  % inhibition Apol 40': 54%
  % inhibition ApPOL 90': 54%
  % inhibition apPOL 180': 46%
DRC-2, concentration 40
  % inhibition Apo pol 5': 37%
  % inhibition Apol 40': 58%
  % inhibition ApPOL 90': 60%
  % inhibition apPOL 180': 59%
DRC-2, concentration 80
  % inhibition Apo pol 5': 27%
  % inhibition Apol 40': 54%
  % inhibition ApPOL 90': 59%
  % inhibition apPOL 180': 62%
